The values below are quoted from earlier work in patent US20240000809A1, “IMPROVED USE OF CANNABINOIDS IN THE TREATMENT OF EPILEPSY” (ORCOSA INC., priority 2020, published 2024).

For the series the following is noted: ingested orally, extensive first pass metabolism.

As for `C=C(C)[C@@H]1CCC(C)=C[C@H]1c1c(O)cc(CCCCC)cc1O` [CBD, cannabidiol], the bioavailability (commonly dose-corrected exposure relative to a reference, in per cent) is given as 6 to 11%.
